This passage reports Herbicidal activity and pest or weed control results from patent US10023590B2, “Substituted pyridine compounds having herbicidal activity” (BASF SE, priority 2014, dated 2018).

Assay type in all cases: in vivo
The test system of one series is Zea mays. The series can be described thus: Greenhouse post-emergence herbicidal activity on crop ZEAMX (corn, maize). The arrangement: key: 0 = no damage/normal growth, 100 = no emergence or complete destruction. From the text: (§1) The culture containers used were plastic flowerpots containing loamy sand with approximately 3.0% of humus as the substrate. The seeds of the test plants were sown separately for each species.
(§2) For the post-emergence treatment, the test plants were first grown to a height of 3 to 15 cm, depending on the plant habit, and only then treated with the active ingredients which had been suspended or emulsified in water. For this purpose, the test plants were either sown directly and grown in the same containers, or they were first grown separately as seedlings and transplanted into the test containers a few days prior to treatment.
(§3) Depending on the species, the plants were kept at 10-25° C. or 20-35° C., respectively.
(§4) The test period extended over 2 to 4 weeks. During this time, the plants were tended, and their response to the individual treatments was evaluated.
(§5) Evaluation was carried out using a scale from 0 to 100. 100 means no emergence of the plants, or complete destruction of at least the aerial moieties, and 0 means no damage, or normal course of growth. A good herbicidal activity is given at values of at least 70 and a very good herbicidal activity is given at values of at least 85.

Another series deals with Abutilon theophrasti. Nature of the series: Greenhouse post-emergence herbicidal activity, ABUTH. The conditions noted are these: ABUTH.
From the text: as §1, §2, §3, §4, §5

A further series deals with Chenopodium album. The series can be described thus: Greenhouse post-emergence herbicidal activity, CHEAL.
From the text: as §1, §2, §3, §4, §5

Another series has as its system Amaranthus retroflexus. The series can be described thus: Greenhouse post-emergence herbicidal activity, AMARE. The conditions noted are these: AMARE.
From the text: as §1, §2, §3, §4, §5

A further series concerns Oryza sativa. The series can be described thus: Greenhouse post-emergence herbicidal activity on crop ORYSA (rice).
From the text: as §1, §2, §3, §4, §5

In a further series the test system is Echinocloa crus-galli. Nature of the series: Greenhouse post-emergence herbicidal activity, ECHCG. The conditions noted are these: Echinochloa crus-galli, ECHCG.
From the text: as §1, §2, §3, §4, §5

The test system of another series is Kochia scoparia. The series can be described thus: Greenhouse post-emergence herbicidal activity, KCHSC. To be noted: scale 0 to 100.
From the text: as §1, §2, §3, §4, §5

Another series deals with Cirsium arvense. The series can be described thus: Greenhouse post-emergence herbicidal activity, CIRAR. To be noted: CIRAR, 0.125 kg/ha, scale 0 to 100.
From the text: as §1, §2, §3, §4, §5

Another series has as its system Ambrosia artemisiifolia. The series can be described thus: Greenhouse post-emergence herbicidal activity, AMBEL. The conditions noted are these: scale 0 to 100.
From the text: as §1, §2, §3, §4, §5

Setting [1] is: ZEAMX (corn, crop), 0.031 kg/ha, scale 0 to 100.
The mark [2] stands for this setting: ZEAMX (corn, crop), 0.063 kg/ha, scale 0 to 100.
The mark [3] stands for this setting: 2 kg/ha, scale 0 to 100, read-out: Herbicidal activity.
Setting [4] is: ORYSA (rice, crop), 0.031 kg/ha, scale 0 to 100.
Setting [5] is: ORYSA (rice, crop), 0.063 kg/ha, scale 0 to 100.
Setting [6] is: ZEAMX (corn, crop), 0.125 kg/ha, scale 0 to 100.
Setting [7] is: crop ZEAMX (corn, maize), application rate 0.031 kg/ha.
The mark [8] stands for this setting: crop ZEAMX (corn, maize), application rate 0.063 kg/ha.
Setting [9] is: crop ZEAMX (corn, maize), application rate 0.125 kg/ha.
Setting [10] is: crop ORYSA (rice), application rate 0.031 kg/ha.
Setting [11] is: crop ORYSA (rice), application rate 0.063 kg/ha.
Setting [12] is: crop ORYSA (rice), application rate 0.125 kg/ha.
Where [13] appears, read: application rate 2 kg/ha, read-out: Herbicidal activity.

Where two headings read alike, the source gives them in different places.

Turning to `CCN(c1c(Cl)ccc(C2=C(O)c3ncccc3CS2(=O)=O)c1Cl)S(C)(=O)=O` [I-8, N-[2,6-dichloro-3-(8-hydroxy-6,6-dioxo-5H-thiopyrano[4,3-b]pyridin-7-yl)phenyl]-N-ethyl-methanesulfonamide], the Herbicidal activity was found to be 0 with Zea mays (setting [1]), 0 with Zea mays (setting [2]), 0 in the series on Oryza sativa (setting [4]) and 25 in the series with Oryza sativa (setting [5]). The pest or weed control at 2000 g/ha with Abutilon theophrasti (setting [3]), in the series with Amaranthus retroflexus (setting [3]) and in the series on Echinocloa crus-galli (setting [3]) was 100% each time. The pest or weed control at 31 g/ha in the series with Chenopodium album (0.031 kg/ha, scale 0 to 100) was found to be 100%; in the series with Amaranthus retroflexus (0.031 kg/ha, scale 0 to 100), 100%; with Echinocloa crus-galli (0.031 kg/ha, scale 0 to 100) it was 90%. The pest or weed control at 63 g/ha in the series on Chenopodium album (0.063 kg/ha, scale 0 to 100) stood at 100%; in the series on Amaranthus retroflexus (0.063 kg/ha, scale 0 to 100) it was 90%; in the series on Echinocloa crus-galli (0.063 kg/ha, scale 0 to 100), 95%. Besides, the pest or weed control at 125 g/ha in the series on Chenopodium album (0.125 kg/ha, scale 0 to 100) was 100%; in the series on Echinocloa crus-galli (0.125 kg/ha, scale 0 to 100) it was 95%.

`Cc1c(C2=C(OC(=O)C(C)(C)C)c3ncccc3C(C)(C)S2(=O)=O)cccc1N(C)S(C)(=O)=O` [I-13, [5,5-dimethyl-7-[2-methyl-3-[methyl(methylsulfonyl)amino]phenyl]-6,6-dioxo-thiopyrano[4,3-b]pyridin-8-yl] 2,2-dimethylpropanoate]: the Herbicidal activity is listed as 0 with Zea mays (setting [6]); 90 in the series on Kochia scoparia (0.125 kg/ha); 0 in the series on Oryza sativa (ORYSA (rice, crop), 0.125 kg/ha, scale 0 to 100). Further, the values for the pest or weed control at 2000 g/ha in the series on Amaranthus retroflexus (setting [3]) and with Echinocloa crus-galli (setting [3]) were 100% and 75%, respectively.

For `CC1(C)c2cccnc2C(O)=C(c2c(Cl)ccc(NS(C)(=O)=O)c2Cl)S1(=O)=O` [I-6, N-[2,4-dichloro-3-(8-hydroxy-5,5-dimethyl-6,6-dioxo-thiopyrano[4,3-b]pyridin-7-yl)phenyl]methanesulfonamide], the pest or weed control at 2000 g/ha in the series with Abutilon theophrasti (setting [3]), in the series on Amaranthus retroflexus (setting [3]) and in the series with Echinocloa crus-galli (setting [3]) was 100% throughout. Besides, the pest or weed control at 31 g/ha in the series on Chenopodium album (0.031 kg/ha, scale 0 to 100) came to 95%; with Amaranthus retroflexus (0.031 kg/ha, scale 0 to 100), 85%. For the same compound, the pest or weed control at 63 g/ha is 98% with Chenopodium album (0.063 kg/ha, scale 0 to 100) and 95% in the series on Amaranthus retroflexus (0.063 kg/ha, scale 0 to 100). In addition, the pest or weed control at 125 g/ha is 98% in the series on Chenopodium album (0.125 kg/ha, scale 0 to 100); 98% in the series on Amaranthus retroflexus (0.125 kg/ha, scale 0 to 100); 100% in the series with Cirsium arvense. Also, the Herbicidal activity is on record as 90 in the series on Kochia scoparia (0.031 kg/ha), 98 in the series on Kochia scoparia (0.063 kg/ha), 0 in the series with Oryza sativa (setting [4]) and 40 with Oryza sativa (setting [5]).

On to `CN(c1cccc(C2=C(O)c3ncccc3C(C)(C)S2(=O)=O)c1Cl)S(C)(=O)=O` [I-17, N-[2-chloro-3-(8-hydroxy-5,5-dimethyl-6,6-dioxo-thiopyrano[4,3-b]pyridin-7-yl)phenyl]-N-methyl-methanesulfonamide], for which the pest or weed control at 2000 g/ha in the series with Abutilon theophrasti (setting [3]), with Amaranthus retroflexus (setting [3]) and in the series on Echinocloa crus-galli (setting [3]) was 100% in each case. Also, the pest or weed control at 31 g/ha was 100% in the series on Chenopodium album (0.031 kg/ha, scale 0 to 100); 98% with Amaranthus retroflexus (0.031 kg/ha, scale 0 to 100); 95% in the series on Echinocloa crus-galli (0.031 kg/ha, scale 0 to 100). Also, the pest or weed control at 63 g/ha with Chenopodium album (0.063 kg/ha, scale 0 to 100) is 100%; in the series on Amaranthus retroflexus (0.063 kg/ha, scale 0 to 100), 100%. In addition, the pest or weed control at 125 g/ha in the series on Chenopodium album (0.125 kg/ha, scale 0 to 100) is 100%; in the series with Amaranthus retroflexus (0.125 kg/ha, scale 0 to 100) it was 100%. Also, the Herbicidal activity in the series with Ambrosia artemisiifolia (0.063 kg/ha) was 100; in the series on Ambrosia artemisiifolia (0.125 kg/ha), 100; with Oryza sativa (setting [5]), 10.

With `CN(c1cccc(C2=C(O)c3ncccc3C(C)(C)S2(=O)=O)c1C(F)(F)F)S(C)(=O)=O` [I-36, N-[3-(8-hydroxy-5,5-dimethyl-6,6-dioxo-thiopyrano[4,3-b]pyridin-7-yl)-2-(trifluoromethyl)phenyl]-N-methyl-methanesulfonamide], the Herbicidal activity with Zea mays (setting [7]) is recorded as 0; with Zea mays (setting [8]) it was 0; with Zea mays (setting [9]), 0; in the series with Oryza sativa (setting [10]), 30; in the series on Oryza sativa (setting [11]), 40; in the series on Oryza sativa (setting [12]), 45. Further, the figures for the pest or weed control at 31 g/ha with Chenopodium album (application rate 0.031 kg/ha), in the series with Amaranthus retroflexus (application rate 0.031 kg/ha) and in the series on Echinocloa crus-galli (application rate 0.031 kg/ha) were 100%, 90% and 70%, respectively. Further, the pest or weed control at 63 g/ha in the series on Chenopodium album (application rate 0.063 kg/ha) worked out at 100%; in the series with Amaranthus retroflexus (application rate 0.063 kg/ha) it was 95%; in the series with Echinocloa crus-galli (application rate 0.063 kg/ha) it was 90%. Besides, the pest or weed control at 125 g/ha in the series on Chenopodium album (application rate 0.125 kg/ha) was 100%; in the series with Amaranthus retroflexus (application rate 0.125 kg/ha) it was 98%; with Echinocloa crus-galli (application rate 0.125 kg/ha), 95%.

As for `CN(c1c(Cl)ccc(C2=C(OC(=O)C(C)(C)C)c3ncccc3C(C)(C)S2(=O)=O)c1Cl)S(C)(=O)=O` [I-30], the pest or weed control at 2000 g/ha in the series on Abutilon theophrasti (setting [13]), in the series on Amaranthus retroflexus (setting [13]) and with Echinocloa crus-galli (setting [13]) was 100% throughout.

As to `CN(c1cccc(C2=C(O)c3ncccc3CS2(=O)=O)c1C(F)(F)F)S(C)(=O)=O` [I-35, N-[3-(8-hydroxy-6,6-dioxo-5H-thiopyrano[4,3-b]pyridin-7-yl)-2-(trifluoromethyl)phenyl]-N-methyl-methanesulfonamide], the Herbicidal activity was 0 in the series on Zea mays (setting [7]); 0 in the series on Zea mays (setting [8]); 0 with Zea mays (setting [9]); 0 with Oryza sativa (setting [10]); 15 with Oryza sativa (setting [11]); 25 in the series with Oryza sativa (setting [12]). Further, the pest or weed control at 31 g/ha in the series on Chenopodium album (application rate 0.031 kg/ha) was 95%; with Echinocloa crus-galli (application rate 0.031 kg/ha), 80%. For the same compound, the pest or weed control at 63 g/ha is 100% in the series on Chenopodium album (application rate 0.063 kg/ha), 75% in the series on Amaranthus retroflexus (application rate 0.063 kg/ha) and 90% in the series on Echinocloa crus-galli (application rate 0.063 kg/ha). Further, the pest or weed control at 125 g/ha in the series on Chenopodium album (application rate 0.125 kg/ha) worked out at 100%; in the series with Amaranthus retroflexus (application rate 0.125 kg/ha) it was 100%; in the series on Echinocloa crus-galli (application rate 0.125 kg/ha) it was 90%.

As to `CCS(=O)(=O)N(C)c1c(Cl)ccc(C2=C(O)c3ncccc3CS2(=O)=O)c1Cl` [I-18, N-[2,6-dichloro-3-(8-hydroxy-6,6-dioxo-5H-thiopyrano[4,3-b]pyridin-7-yl)phenyl]-N-methyl-ethanesulfonamide], the Herbicidal activity came to 0 in the series on Zea mays (setting [1]); 25 in the series on Zea mays (setting [2]); 25 in the series with Zea mays (setting [6]); 35 in the series with Zea mays (ZEAMX (corn, crop), 0.25 kg/ha, scale 0 to 100); 30 in the series with Oryza sativa (setting [4]). In addition, the pest or weed control at 31 g/ha in the series with Chenopodium album (0.031 kg/ha, scale 0 to 100) stood at 100%; in the series with Amaranthus retroflexus (0.031 kg/ha, scale 0 to 100), 100%; with Echinocloa crus-galli (0.031 kg/ha, scale 0 to 100), 98%. Besides, the pest or weed control at 63 g/ha was 100% in the series with Chenopodium album (0.063 kg/ha, scale 0 to 100); 100% in the series with Amaranthus retroflexus (0.063 kg/ha, scale 0 to 100); 100% in the series on Echinocloa crus-galli (0.063 kg/ha, scale 0 to 100). The pest or weed control at 125 g/ha amounted to 100% with Chenopodium album (0.125 kg/ha, scale 0 to 100); 100% in the series on Amaranthus retroflexus (0.125 kg/ha, scale 0 to 100); 100% in the series with Echinocloa crus-galli (0.125 kg/ha, scale 0 to 100). Moreover, the pest or weed control at 250 g/ha with Chenopodium album (0.25 kg/ha, scale 0 to 100) stood at 100%; with Amaranthus retroflexus (0.25 kg/ha, scale 0 to 100), 100%; in the series on Echinocloa crus-galli (0.25 kg/ha, scale 0 to 100), 100%.
